Experimental: To test for sensor stability and performance, a cartridge use life test was completed after one month of cartridge shelf-life and then repeated after eight months of cartridge shelf-life.
Additionally, reagent performance on the GEM® Premier™ 5000 system was evaluated based on drift of parameters for assays performed on the GEM® Premier™ 5000 system. Drift for each assay parameter constitutes a deviation of measured results for each assay parameter from its factory assigned target. For example, ρO2 was measured several times during cartridge use at a defined frequency on the GEM® Premier™ 5000, and the drift was calculated for each measurement as the difference between measured […] for a composition and the ρO2 assigned to the composition at manufacture.
In this experiment, the control containers were confirmed to contain limited or no metal contamination (e.g., in parts-per-billion, cobalt 0.10, chromium 2.24, copper 0.64, iron 3.23, and manganese 0.63). The limits columns represents the maximum change that can occur during composition shelf-life according to the GEM® Premier™ 5000 design specifications.

With `C[C@H]1COc2c(N3CCN(C)CC3)c(F)cc3c(=O)c(C(=O)O)cn1c23` [levofloxacin] the “effect on sensor performance and the performance and stability of the compositions” value was “does not negatively affect sensor performance”.

— EP4571306A1, “STABILIZING OXYGEN IN A COMPOSITION” (priority 2023, dated 2025)
